Values quoted from earlier work as cited in US8053002B2, “Medicinal herbal composition for treating infection” (priority 2005, dated 2011).

Columns and labels:
[1] = tested on: influenza virus
[2] = tested on: herpes simplex virus (HSV-2)
[3] = molecular target: HIV-1 reverse transcriptase (Human immunodeficiency virus type 1 group M subtype B, UniProt P03366)
[4] = tested on: HIV-1

Compound | anti-herpes simplex virus (HSV-2) activity in vitro [2] | effect on HIV-1 reverse transcriptase activity [3] | also measured
O=c1cc(-c2ccc(O)cc2)oc2cc(O)cc(O)c12 [5,7,4-truhydroxyflavone] |  |  | anti-influenza virus activity [1]: anti-influenza virus activity
O=C(O[C@@H]1O[C@@H]2COC(=O)c3cc(O)c(O)c(O)c3-c3c(cc(O)c(O)c3O)C(=O)O[C@H]2[C@H](OC(=O)c2cc(O)c(O)c(O)c2)[C@H]1OC(=O)c1cc(O)c(O)c(O)c1)c1cc(O)c(O)c(O)c1 [Eugeniin] | exhibited anti-herpes simplex virus (HSV-2) activity |  | 
COC(=O)c1cc(O)c(O)c(O)c1 [methyl gallate] | exhibited anti-herpes simplex virus (HSV-2) activity |  | 
COCc1cc2cc(OC)c(OC)cc2c(-c2ccc3c(c2)OCO3)c1C=O [phyllamycin B] |  | inhibitory effect | 
COc1cc2cc3c(c(-c4ccc5c(c4)OCO5)c2cc1OC)COC3=O [retrojusticiden B] |  | inhibitory effect | 
Prunellin |  |  | minimum inhibition concentration against HIV-1 in vitro [4]: 2.2 µg/mL
